Calls of active or inactive are those of the source. The calls are words filed in the database; no cut-off is given here.
Key:
[1] = Inhibition of refolded MDH (unknown origin)-mediated oxidation of NADPH in presence of mesoxalic acid treated with compound after refolding of the denatured enzyme; set-up: species or system Homo sapiens
[2] = target: T1, E. coli GroEL/ES (Escherichia coli, UniProt P0A6F5); assay: Inhibition of Escherichia coli GroEL/ES-mediated refolding of the denatured malate dehydrogenase; type: protein-complex assay
T1 sequence (P0A6F5 whole entry, looked up): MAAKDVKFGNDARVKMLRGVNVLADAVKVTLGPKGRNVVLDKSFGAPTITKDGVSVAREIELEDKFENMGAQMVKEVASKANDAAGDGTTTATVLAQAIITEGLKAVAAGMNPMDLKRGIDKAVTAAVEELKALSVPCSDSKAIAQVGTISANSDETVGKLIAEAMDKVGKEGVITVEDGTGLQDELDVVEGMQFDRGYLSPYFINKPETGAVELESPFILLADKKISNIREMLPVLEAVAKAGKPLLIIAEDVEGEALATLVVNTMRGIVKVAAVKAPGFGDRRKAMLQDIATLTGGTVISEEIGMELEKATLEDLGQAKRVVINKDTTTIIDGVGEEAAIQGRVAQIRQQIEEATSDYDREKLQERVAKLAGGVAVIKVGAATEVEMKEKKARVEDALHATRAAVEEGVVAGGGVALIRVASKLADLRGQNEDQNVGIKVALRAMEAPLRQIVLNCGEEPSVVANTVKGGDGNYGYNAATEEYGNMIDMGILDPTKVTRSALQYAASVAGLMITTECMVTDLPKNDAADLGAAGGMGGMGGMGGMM

[3] = target: T1, E. coli GroEL/ES; assay: Inhibition of Escherichia coli GroEL/ES-mediated refolding of the denatured rhodanese; type: protein-complex assay
[4] = system: HCT-116; assay: Cytotoxicity against human HCT-116 cells assessed as reduction in cell viability measured after 48 hrs by AlamarBlue assay; type: functional, cell-based; settings: HCT-116, 48 h
[5] = system: DLD-1; assay: Inhibition of clonogenicity in human DLD-1 cells assessed as reduction in number of colony formation incubated for 72 hrs followed by culturing in fresh compound-free medium for 7 days by crystal violet staining based analysis; type: functional, cell-based
[6] = Cytotoxicity against human THLE-3 cells assessed as reduction in cell viability measured after 48 hrs by AlamarBlue assay; type: cell-based; settings: for CC50: thle-3, 48 h; for CC50 at 48 h: THLE-3 cells
[7] = system: HCT-116; assay: Inhibition of clonogenicity in human HCT-116 cells assessed as reduction in colony formation at 50 uM incubated for 72 hrs followed by culturing in fresh compound-free medium for 7 days by crystal violet staining based analysis; type: functional
[8] = system: DLD-1; assay: Cytotoxicity against human DLD-1 cells assessed as reduction in cell viability measured after 48 hrs by AlamarBlue assay; type: functional, cell-based; settings: DLD-1, 48 h
[9] = system: HCT-116; assay: Induction of apoptosis in human HCT-116 cells assessed as compact cell monolayer at 100 uM measured for 72 hrs by phase contrast microscopy; type: functional, cell-based
[10] = system: HCT-116; assay: Inhibition of cell migration in human HCT-116 cells at 0.14 to 100 uM measured for 72 hrs by scratch wound healing assay based phase contrast microscopy; type: functional; settings: dose 0.14-100 µM
[11] = system: HT-29; assay: Inhibition of clonogenicity in human HT-29 cells assessed as reduction in number of colony formation incubated for 72 hrs followed by culturing in fresh compound-free medium for 7 days by crystal violet staining based analysis; type: functional, cell-based
[12] = system: HT-29; assay: Inhibition of clonogenicity in human HT-29 cells assessed as reduction in size of colony incubated for 72 hrs followed by culturing in fresh compound-free medium for 7 days by crystal violet staining based analysis; type: functional, cell-based
[13] = system: HT-29; assay: Cytotoxicity against human HT-29 cells assessed as reduction in cell viability measured after 48 hrs by AlamarBlue assay; type: functional, cell-based; settings: HT-29, 48 h
[14] = system: HCT-116; assay: Inhibition of clonogenicity in human HCT-116 cells assessed as reduction in number of colony formation incubated for 72 hrs followed by culturing in fresh compound-free medium for 7 days by crystal violet staining based analysis; type: functional, cell-based
[15] = system: DLD-1; assay: Inhibition of clonogenicity in human DLD-1 cells assessed as reduction in colony formation at 50 uM incubated for 72 hrs followed by culturing in fresh compound-free medium for 7 days by crystal violet staining based analysis; type: functional
[16] = system: HCT-116; assay: Inhibition of cell migration in human HCT-116 cells measured at 72 hrs by scratch wound healing assay based phase contrast microscopy; type: functional; settings: HCT-116, 72 h
[17] = system: HT-29; assay: Inhibition of clonogenicity in human HT-29 cells assessed as reduction in colony formation at 50 uM incubated for 72 hrs followed by culturing in fresh compound-free medium for 7 days by crystal violet staining based analysis; type: functional
[18] = system: HEK293; assay: (§1) Cytotoxicity against human HEK293 cells assessed as reduction in cell viability measured after 48 hrs by AlamarBlue assay; type: cell-based; settings: hek293, 48 h
[19] = system: FHC; assay: Cytotoxicity against human FHC cells assessed as reduction in cell viability measured after 48 hrs by AlamarBlue assay; type: cell-based
[20] = target: HSP60/HSP10 (Homo sapiens, UniProt P10809); assay: Inhibition of human mitochondrial HSP60/10-mediated refolding of the denatured malate dehydrogenase; type: mitochondria, Mitochondria
Chain of HSP60/HSP10 (P10809 whole entry): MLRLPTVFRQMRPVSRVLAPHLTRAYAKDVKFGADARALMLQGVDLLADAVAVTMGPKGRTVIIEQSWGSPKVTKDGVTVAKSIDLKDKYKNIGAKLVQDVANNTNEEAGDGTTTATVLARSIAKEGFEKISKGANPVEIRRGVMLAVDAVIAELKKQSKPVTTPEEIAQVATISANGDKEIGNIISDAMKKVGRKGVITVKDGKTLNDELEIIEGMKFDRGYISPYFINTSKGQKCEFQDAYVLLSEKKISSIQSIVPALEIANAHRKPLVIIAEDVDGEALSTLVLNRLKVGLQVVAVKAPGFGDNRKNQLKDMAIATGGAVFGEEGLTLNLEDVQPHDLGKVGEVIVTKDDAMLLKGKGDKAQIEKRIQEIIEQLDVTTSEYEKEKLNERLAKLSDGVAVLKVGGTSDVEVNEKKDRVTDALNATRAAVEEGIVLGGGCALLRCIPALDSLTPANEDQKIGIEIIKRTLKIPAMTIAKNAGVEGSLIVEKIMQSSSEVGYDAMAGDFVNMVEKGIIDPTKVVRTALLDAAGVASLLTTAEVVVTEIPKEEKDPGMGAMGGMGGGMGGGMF
Chain of HSP60/HSP10 (P61604 whole entry, further chain): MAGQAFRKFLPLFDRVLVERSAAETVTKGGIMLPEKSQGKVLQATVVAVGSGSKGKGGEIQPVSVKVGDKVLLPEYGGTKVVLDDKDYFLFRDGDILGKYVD

[21] = system: HCT-116; assay: Cytostatic activity in human HCT-116 cells assessed as viable cells at 100 uM incubated for 48 hrs by AnnexinV/PI staining based flow cytometry; type: functional, cell-based
[22] = system: HCT-116; assay: Inhibition of clonogenicity in human HCT-116 cells assessed as reduction in size of colony incubated for 72 hrs followed by culturing in fresh compound-free medium for 7 days by crystal violet staining based analysis; type: functional, cell-based
[23] = target: T2, Thiosulfate sulfurtransferase (Homo sapiens, UniProt Q16762); assay: Inhibition of refolded Rhodanese (unknown origin)-mediated conversion of cyanide to thiocyanate treated with compound after refolding of the denatured enzyme
T2 sequence (Q16762 whole entry): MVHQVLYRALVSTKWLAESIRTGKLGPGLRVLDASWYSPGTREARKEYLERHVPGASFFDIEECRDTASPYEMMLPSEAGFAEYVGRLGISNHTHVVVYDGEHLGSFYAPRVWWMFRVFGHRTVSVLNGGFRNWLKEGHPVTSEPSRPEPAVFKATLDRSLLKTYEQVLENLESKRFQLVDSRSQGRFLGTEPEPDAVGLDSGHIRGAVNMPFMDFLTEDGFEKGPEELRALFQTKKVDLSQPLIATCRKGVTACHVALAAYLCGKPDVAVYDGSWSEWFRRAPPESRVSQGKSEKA

[24] = Cytotoxicity against human FHs74Int cells assessed as reduction in cell viability measured after 48 hrs by AlamarBlue assay; type: cell-based
[25] = system: DLD-1; assay: Inhibition of clonogenicity in human DLD-1 cells assessed as reduction in size of colony incubated for 72 hrs followed by culturing in fresh compound-free medium for 7 days by crystal violet staining based analysis; type: functional, cell-based
[26] = system: HCT-116; assay: Inhibition of cell migration in human HCT-116 cells at 10 uM measured at >=20 hrs by scratch wound healing assay based phase contrast microscopy; type: functional; settings: time hrs >=20
[27] = system: HCT-116; assay: Induction of cell death in human HCT-116 cells assessed as loss of cell monolayer integrity and cytoplasm extrusion at 100 uM measured for 72 hrs by phase contrast microscopy; type: functional, cell-based
[28] = as §1; type: cell-based; settings: HEK293 cells
[29] = system: HCT-116; assay: Induction of apoptosis in human HCT-116 cells at 100 uM incubated for 48 hrs by AnnexinV-FITC/PI staining based flow cytometry; type: functional, cell-based

Compound	IC50 [1] [µM]	IC50 [2] [µM]	IC50 [3] [µM]	EC50 [4] [µM]	EC50 [5] [µM]	EC50 [8] [µM]	EC50 [11] [µM]	EC50 [12] [µM]	EC50 [13] [µM]	EC50 [14] [µM]	EC50 [16] [µM]	CC50 [19] [µM]	IC50 [20] [µM]	EC50 [22] [µM]	IC50 [23] [µM]	CC50 [24] [µM]	EC50 [25] [µM]	inhibition [5]	inhibition [26]	CC50 at 48 h [6] [µM]	other results
COc1ccc(S(=O)(=O)Nc2ccc3oc(-c4ccc(NC(=O)c5ccc(Cl)s5)cc4)nc3c2)cc1	> 62.5	18	15	5.4	> 50	4.6	2.3	0.71	1.9	2.7	5.7	> 100	61	1.1	> 100	> 100	11	–	–	–	CC50 [6]: 57 µM; inhibition [7]: Active; Activity [9]: inactive; inhibition [10]: Active; inhibition [15]: Active; inhibition [17]: Active; CC50 [18]: 15 µM; Activity [21]: Active
Cc1ccc(S(=O)(=O)Nc2ccc(-c3nc4cc(NS(=O)(=O)c5ccc(C)cc5)ccc4o3)cc2)cc1	> 62.5	27	30	5.9	16	13	13	10	11	14	9	51	> 100	15	> 100	74	12	Dose-Dependent Effect	Active	15	inhibition at 50 µM [7]: 100%; inhibition [11]: Dose-Dependent Effect; inhibition [12]: Dose-Dependent Effect; Activity [27]: Active; inhibition [14]: Dose-Dependent Effect; inhibition at 50 µM [15]: 100%; inhibition at 50 µM [17]: 100%; CC50 at 48 h [28]: 32 µM; inhibition [22]: Dose-Dependent Effect; inhibition [25]: Dose-Dependent Effect; Activity [29]: Active
O=C(Nc1ccc(Sc2nc3ccccc3s2)c(Cl)c1)c1cccc(Br)c1O	> 62.5	10	5.9	12	21	22	32	12	20	17	2	> 100	7.7	9.1	–	> 100	11	Dose-Dependent Effect	Active	18	inhibition at 50 µM [7]: 100%; inhibition [11]: Dose-Dependent Effect; inhibition [12]: Dose-Dependent Effect; Activity [27]: Active; inhibition [14]: Dose-Dependent Effect; inhibition at 50 µM [15]: 100%; inhibition at 50 µM [17]: 100%; CC50 at 48 h [28]: 68 µM; inhibition [22]: Dose-Dependent Effect; inhibition [25]: Dose-Dependent Effect; Activity [29]: Active
COc1c(Br)cccc1C(=O)Nc1ccc(Sc2nc3ccccc3s2)c(Cl)c1	> 62.5	37	16	8.5	11	10	27	13	11	11	5.5	> 100	–	12	–	> 100	10	Dose-Dependent Effect	Active	14	inhibition at 50 µM [7]: 100%; inhibition [11]: Dose-Dependent Effect; inhibition [12]: Dose-Dependent Effect; Activity [27]: Active; inhibition [14]: Dose-Dependent Effect; inhibition at 50 µM [15]: 100%; inhibition at 50 µM [17]: 100%; CC50 at 48 h [28]: 40 µM; inhibition [22]: Dose-Dependent Effect; inhibition [25]: Dose-Dependent Effect; Activity [29]: Active
COc1ccc(S(=O)(=O)Nc2ccc3oc(-c4ccc(NC(=O)c5cccc(C)c5[N+](=O)[O-])cc4)nc3c2)cc1	> 62.5	33	28	4.4	> 50	1.5	26	2	–	19	2.3	> 100	72	2.6	> 100	> 100	1.6	–	–	–	CC50 [6]: 22 µM; inhibition [7]: Active; Activity [9]: inactive; inhibition [10]: Active; inhibition [15]: Active; inhibition [17]: Active; CC50 [18]: 12 µM; Activity [21]: Active

From ChEMBL document CHEMBL4819133, “Exploiting the HSP60/10 chaperonin system as a chemotherapeutic target for colorectal cancer” (Bioorg Med Chem, 2021)
